Assay results as given in patent publication US8993562B2, “Imidazo[1,2-b]pyridazines, processes, uses, intermediates and compositions” (Ferrer Internacional, S.A., priority 2006, dated 2015).
pIC50: −log10 of the molar value.

Columns and labels:
[1] = test system: male CD1 mice; test: In vivo predictive sedation-hypnosis test (traveled distance); conditions: Mus musculus, ip, 0.5 h, traveled distance over 30 min versus control, read-out: % inhib motor activity; for inhibition in vivo at 0.98 µmol/kg: 0.98 μmol/kg intraperitoneal; for inhibition in vivo at 98 µmol/kg: 98.0 μmol/kg intraperitoneal
[2] = test system: male CD1 mice; test: In vivo predictive anesthetic test (loss of righting reflex)
Protocol: c) In Vivo Determination of Predictive Anesthetic Activity
The in vivo effects of these compounds were assessed by a predictive anesthetic test in mice as the loss of righting reflex (Kralic et al., Neuropharmacology, 43(4), 685-689 2002; Belelli et al., Neuropharmacology, 45, 57-71, 2003).
Groups of 5-8 male CD1 mice, weighing 22-26 g at the time of test, were used. The test compounds were administered at 98.0 μmol/kg by mean of intraperitoneal injection. Compounds were suspended in 0.25% agar with one drop of Tween in a volume of 10 mL/kg.

[3] = test system: α1-GABAA receptor; test: Ligand-binding assay, radiolabeled flumazenil competition, cerebellum membranes; conditions: rat cerebellum membranes, radiolabeled flumazenil 1 nM
Protocol: (§1) a) Ligand-binding Assays. Determination of the Affinity of Test Compounds for α1- and α2-GABAA Receptor
(§2) Male Sprague-Dawley rats weighing 200-250 g at the time of experiment were used. After decapitation of the animal, the cerebellum (tissue that mostly contains α1-GABAA receptor) and spinal cord (tissue that mostly contains α2-GABAA receptor) were removed. The membranes were prepared according to the method by J. Lameh et al. (Prog. Neuro-Psychopharmacol. Biol. Psychiatry, 24, 979-991, 2000) and H. Noguchi et al. (Eur J Pharm, 434, 21-28, 2002) with slight modifications. Once the tissues weighed, they were suspended in 50 mM Tris.HCl (pH 7.4), 1:40 (v/v), or sucrose 0.32 M in the case of spinal cord, homogenized and then centrifuged at 20000 g for 10 minutes at 7° C. The resulting pellet was resuspended under the same conditions and centrifuged again. The pellet was finally resuspended on a minimum volume and kept at −80° C. overnight. A slight modification was used in the case of spinal cord at the first centrifugation step. Centrifugation speed was at 1000 g and the supernatant was collected instead of discarded as in cerebellum. Then, supernatant was centrifuged at 20000 g and resuspended twice more under the same conditions described above for cerebellum. On the next day, the process was repeated until the final pellet was resuspended at a ratio of 1:10 (v/v) in the case of cerebellum and at a ratio of 1:5 (v/v) in the case of spinal cord.
(§3) Affinity was determined by competitive tests using radiolabeled flumazenil as ligand. The tests were performed according to the methods described by S. Arbilla et al. (Eur. J. Pharmacol., 130, 257-263, 1986); and Y. Wu et al. (Eur. J. Pharmacol., 278, 125-132, 1995) using 96-well microtiter plates. The membranes containing the study receptors, flumazenil (radiolabeling at a final concentration of 1 nM) and ascending concentrations of test compounds (in a total volume of 230 μl in 50 mM [pH 7.4] Tris.HCl buffer) were incubated. Simultaneously, the membranes were only incubated with the radiolabeled flumazenil (total binding, 100%) and in the presence of an elevated concentration of unradiolabeled flumazenil (non-specific binding, % estimation of radiolabeled ligand). The reactions started on adding the radiolabeled ligand followed by incubation for 60 minutes at 4° C. At the end of the incubation period, 200 μl of reaction were transferred to a multiscreen plate (Millipore) and filtered using a vacuum manifold and then washed three times with cold test buffer. The multiscreen plates were equipped with a GF/B filter that retained the membranes containing the receptors and the radiolabeled ligand which had been bound to the receptors. After washing, the plates were left till dry. Once dried, scintillation liquid was added and left under stirring overnight. The next day the plates were counted using a Perkin-Elmer Microbeta scintillation counter.
(§4) For analysis of the results the percentage of specific binding for every concentration of test compound was calculated as follows: specific binding−(X−N/T−N)×100 where, X: amount of bound ligand for every concentration of compound. T: total binding, maximum amount bound to the radiolabeled ligand. N: non-specific binding, amount of radiolabeled ligand bound in a non-specific way irrespective of the receptor used.
(§5) Every concentrations of compound were tested in triplicate and their mean values were used to determine the experimental values of % specific binding versus the concentration of compound. Affinity data are expressed as % inhibition at 10^−5M and 10^−7M concentrations.

[4] = test system: α2-GABAA receptor; test: Ligand-binding assay, radiolabeled flumazenil competition, spinal cord membranes; conditions: rat spinal cord membranes, radiolabeled flumazenil 1 nM
Protocol: as §1, §2, §3, §4, §5

[5] = target: T1, GABAA receptor; test: Comparative assay: IC50 values estimated from Cheng-Prusoff equation; format: binding, rat; conditions: compounds of the invention; estimated from Ki by Cheng-Prusoff equation, radioligand 1 nM
T1 construct: IC50; other: compounds of the invention; estimated from Ki by Cheng-Prusoff equation, radioligand 1 nM
Protocol: All these compounds have in common that at 3-position, the imidazo[1,2-b]pyradizine ring have an acetamide. The rest of compounds disclosed in WO89/01333 are not structurally so related with the compounds of the present invention.
The IC50 values were estimated from Cheng-Prusoff equation (Cheng Y. C. and Prusoff W. H.; Biochem. Pharmacol. 22, 3099-3108, 1973)
[formula] where, Ki is determined for each one of the compounds of the invention as described above (section (a)). [RL*]: radiolabeled ligand concentration (1 nM). Kd: affinity constant (cerebellum 1.34 nM/spinal cord 1.19 nM)

| Structure (SMILES) | inhibition in vivo at 0.98 µmol/kg [1] | inhibition in vivo at 98 µmol/kg [1] | % of animals with loss of righting reflex ([2]; 98.0 μmol/kg intraperitoneal) | % inhib 10^−5 M, affinity for the α1-subunit of the GABAA receptor [3] | % inhib 10^−7 M, affinity for the α1-subunit of the GABAA receptor [3] | % inhib 10^−5 M, affinity for the α2-subunit of the GABAA receptor [4] | % inhib 10^−7 M, affinity for the α2-subunit of the GABAA receptor [4] | pIC50 [5] | % of animals with loss of righting reflex ([2]; double dose than compounds of the present invention) |
| --- | --- | --- | --- | --- | --- | --- | --- | --- | --- |
| CCCN(CCC)C(=O)Cc1c(-c2ccc(C)cc2)nc2ccc(Cl)nn12 [Example 2, 2-(6-Chloro-2-p-tolyl-imidazo[1,2-b]pyridazin-3-yl)-N,N-dipropyl-acetamide] | 38.4% | 96.7% | 90% | – | – | – | – | – | – |
| CCCCN(CCCC)C(=O)Cc1c(-c2ccc(C)cc2)nc2ccc(Cl)nn12 [Example 3, N,N-Dibutyl-2-(6-chloro-2-p-tolyl-imidazo[1,2-b]pyridazin-3-yl)-acetamide] | 14.6% | 90.9% | 100% | – | – | – | – | – | – |
| COc1ccc(-c2nc3ccc(C)nn3c2CC(=O)N2CCCCC2)cc1 [Example 73, 2-[2-(4-Methoxy-phenyl)-6-methyl-imidazo[1,2-b]pyridazin-3-yl]-1-piperidin-1-yl-ethanone] | – | 94.1% | – | 99.9% | 76.5% | 77.0% | 20.6% | – | – |
| CCN(CC)C(=O)Cc1c(-c2ccc(OC)cc2)nc2ccc(OC)nn12 [Example 75, N,N-Diethyl-2-[6-methoxy-2-(4-methoxy-phenyl)-imidazo[1,2-b]pyridazin-3-yl]-acetamide] | – | 92.6% | – | 99.4% | 52.1% | 68.8% | 9.3% | – | – |
| CCCN(CC1CC1)C(=O)Cc1c(-c2ccc(C)cc2)nc2ccc(C)nn12 [Example 82, N-Cyclopropylmethyl-2-(6-methyl-2-p-tolyl-imidazo[1,2-b]pyridazin-3-yl)-N-propyl-acetamide] | – | 94.2% | 30% | – | – | – | – | – | – |
| Cc1ccc(-c2nc3ccc(C)nn3c2CC(=O)Nc2nccs2)cc1 [Example 83, 2-(6-Methyl-2-p-tolyl-imidazo[1,2-b]pyridazin-3-yl)-N-thiazol-2-yl-acetamide] | – | 88.9% | – | 99.6% | 97.6% | 93.1% | 57.7% | – | – |
| Cc1ccc(-c2nc3ccc(C)nn3c2CC(=O)N(C(C)C)C(C)C)cc1 [Example 84, N,N-Diisopropyl-2-(6-methyl-2-p-tolyl-imidazo[1,2-b]pyridazin-3-yl)-acetamide] | – | 90.8% | – | 100.0% | 91.7% | 63.9% | 3.1% | – | – |
| Cc1ccc(-c2nc3ccc(C)nn3c2CC(=O)Nc2ccccc2)cc1 [Example 86, 2-(6-Methyl-2-p-tolyl-imidazo[1,2-b]pyridazin-3-yl)-N-phenyl-acetamide] | – | 92.6% | – | 99.5% | 75.9% | 80.9% | 23.0% | – | – |
| Cc1ccc(-c2nc3ccc(C)nn3c2CC(=O)Nc2ccccn2)cc1 [Example 88, 2-(6-Methyl-2-p-tolyl-imidazo[1,2-b]pyridazin-3-yl)-N-pyridin-2-yl-acetamide] | – | 88.5% | – | 100.2% | 83.9% | – | – | 7.89 | – |
| Cc1ccc(-c2nc3ccc(C)nn3c2CC(=O)Nc2cc(C)on2)cc1 [Example 95, N-(5-Methyl-isoxazol-3-yl)-2-(6-methyl-2-p-tolyl-imidazo[1,2-b]pyridazin-3-yl)-acetamide] | – | – | – | – | – | – | – | 7.77 | – |
| Cc1ccc(-c2nc3ccc(C)nn3c2CC(=O)Nc2cc(C)no2)cc1 [Example 97, N-(3-Methyl-isoxazol-5-yl)-2-(6-methyl-2-p-tolyl-imidazo[1,2-b]pyridazin-3-yl)-acetamide] | – | – | – | – | – | – | – | 7.84 | – |
| Cc1ccc(-c2nc3ccc(C)nn3c2CC(=O)Nc2nncs2)cc1 [Example 98, 2-(6-Methyl-2-p-tolyl-imidazo[1,2-b]pyridazin-3-yl)-N-[1,3,4]thiadiazol-2-yl-acetamide] | – | – | – | – | – | – | – | 7.91 | – |
| Cc1ccc(-c2nc3ccc(C)cn3c2CC(=O)N(C)C)cc1 [zolpidem, N,N,6-trimethyl-2-p-tolylimidazo[1,2-a]pyridine-3-acetamide, reference compound] | 18.3% | 91.7% | – | 99.4% | 73.6% | 74.1% | 19.9% | – | 80% |
